Source: publication PMC8835475, “Salviolone from Salvia miltiorrhiza Roots Impairs Cell Cycle Progression, Colony Formation, and Metalloproteinase-2 Activity in A375 Melanoma Cells: Involvement of P21(Cip1/Waf1) Expression and STAT3 Phosphorylation” (International Journal of Molecular Sciences, 2022)

What was measured:
[1] = test system: A375 cells; assay: Wound closure cell migration assay; assay type: cell-based, human; details: A375, 20 µM, vs controls
Method: The wound healing assay is widely used to measure cell migration. The method is based on quantifying the rate at which cells can close an artificial scratch created in a confluent cell monolayer. A375 cells were seeded in 12-well plates (120 × 10^3 cells/well) and, once confluence was reached, the monolayer was scratched with a sterile 10 μL pipette tip. […] Then, either cryptotanshinone (4) or salviolone (7) at 10 or 20 µM was added to the culture. After 0-, 8-, 24- and 30-h culture, images were captured with Zeiss Axio Vert. (Zeiss, Milan, Italy) to measure the delay to repopulate the scratch in comparison with the non-treated control sample.

[2] = test system: P21(Cip1/Waf1); assay: Immunoblot of P21 in A375 cells; assay type: cell-based, human; details: A375, 20 µM, 48 and 72 h
Method: (§1) A375 cells were seeded in 6 cm Petri dishes (190 300 cell/dish) and treated with different compounds at 10 or 20 μM. After 48- or 72-h treatment, the cells were scraped using warm 1× sample buffer (2% SDS, 10% glycerol, 50 mM Tris-HCl, 1.75% β-mercaptoethanol, and bromophenol blue) and boiled at 99 °C for 10 min. Total protein extracts were kept at −80 °C until use.
(§2) Protein extracts were analyzed with a 7.5 or 10% polyacrylamide SDS-PAGE and transferred to a polyvinylidene difluoride membrane (PVDF, Thermo Fisher Scientific, Waltham, MA, USA). The membranes were blocked at RT for 1 h with TBST buffer (10 mM Tris-HCl pH 7.5, 100 mM NaCl, 0.1% Tween20) containing 4% Milk (Formulat). […] Immuno-detection was carried out with an ECL kit (GE-Healthcare, Little Chalfont, UK), and the chemiluminescence signals were detected with ChemiDoc (Bio-Rad, Hercules, CA, USA).

[3] = test system: normal human epithelial melanocyte (NHEM) cell line; assay: SRB cell viability assay in NHEM cells; assay type: cell-based; details: for effect on NHEM viability: 10–20 µM; for reduction of NHEM viability: 40–60 µM
Method: Human MeWo (HTB-65) and A375 (CRL-1619) melanoma cell lines as well as the normal human epidermal melanocyte (NHEM) (PCS-200-013) cell line (ATCC, Manassas, VA, USA) were cultured at 37 °C under 5% CO2 in a humidified atmosphere. Roswell Park Memorial Institute 1640 medium (RPMI, Gibco, Ref.21875, Thermo Scientific, Waltham, MA, USA) was used to culture MeWo cells, while Dulbecco’s Modified Eagle Medium (DMEM, Gibco, Ref. 61965, Thermo Scientific, Waltham, MA, USA) was used for A375 and NHEM cell lines. The culture media were supplemented with 10% fetal bovine serum (FBS, Gibco, Thermo Scientific, Waltham, MA, USA) plus 1% Antibiotic Antimycotic Solution (Gibco, Thermo Scientific). The MEK1 inhibitor U0126 (CAY-70970) and the PI3K inhibitor LY294002 (CAY-70920) were provided by Cayman Chemical, Ann Arbor, MI, USA.
Melanoma MeWo and A375 cells or NHEM were seeded in 96-well plates (5.0 × 10^3 cells/well for MeWo cells and 2.9 × 10^3 cells/well for A375 or NHEM). After 24-h culture, the cells were treated with different concentrations of compounds 1–7. After 72-h treatment, the cells were fixed by adding 25 µL/well of 50% (w/v) TCA directly into the culture medium. The plates were incubated at 4 °C for 1 h, washed four times with ddH2O, and dried at RT. Staining was performed by adding 50 µL/well of 0.04% (w/v) sulforhodamine B (SRB) sodium salt solution (Sigma-Aldrich, Milan, Italy). After 1-h incubation at RT, the plates were rinsed with 1% HAc and air-dried. SRB was solubilized in a 10 mM Tris-base solution pH 10.5 and Abs492 measured in the plate reader TECAN NanoQuant Infinite M200 Pro (Tecan Group Ltd., Männedorf, Switzerland). Six replicates for each condition/data point were performed.

[4] = test system: cyclin A2; assay: Immunoblot of cyclin A2 in A375 cells; assay type: cell-based, human; details: A375, 20 µM, 48 or 72 h
Method: as §1, §2

[5] = test system: P53; assay: Immunoblot of P53 in A375 cells; assay type: cell-based, human; details: A375, 20 µM, 48 and 72 h
Method: as §1, §2

[6] = test system: pERK1/2; assay: Immunoblot of pERK1/2 in A375 cells; assay type: cell-based, human; details: A375, 20 µM, 72 h; declined in control
Method: as §1
Protein extracts were analyzed with a 7.5 or 10% polyacrylamide SDS-PAGE and transferred to a polyvinylidene difluoride membrane (PVDF, Thermo Fisher Scientific, Waltham, MA, USA). The membranes were blocked at RT for 1 h with TBST buffer (10 mM Tris-HCl pH 7.5, 100 mM NaCl, 0.1% Tween20) containing 4% Milk (Formulat). Then, they were incubated on a shaker, overnight (ON) at 4 °C, with 5% BSA solution containing primary antibodies against p-Tyr705-STAT3 (#9145, 1:1000), pRb (#8516, 1:2000), pERK (#4370, 1:1000), pAkt (#4060, 1:2000), pSer15-P53 (#9286, 1:2000) (Cell Signaling Technology, Danvers, […], USA), Akt (GTX121937, 1:3000), ERK (GTX134452, 1:6000), Cyclin A2 (GTX-103042, 1:3000), p-Thr160Cdk2 (GTX-133862, 1:3000), p21 (GTX-629543, 1:3000) (Genetex, Alton Pkwj Irvine, CA, USA), p53 (Sc-263, 1:1000), STAT3 (Sc-482, 1:1000), and p-Ser727-STAT3 (Sc-136193, 1:1000) (Santa Cruz Biotechnology, Dallas, TX, USA). The membranes were washed three times with TBST buffer for 30 min and then incubated for 1 h with a horseradish-peroxidase-conjugated secondary antibody (anti-rabbit 1:6000, Genetex), (anti-mouse, 1:4000, Cell Signaling Technology, Danvers, […], USA). They were washed another three times for 30 min with TBST buffer. All protein extracts were normalized with a β-actin protein antibody (GTX-124214, 1:10,000; Genetex, Alton Pkwj Irvine, CA, USA). Immuno-detection was carried out with an ECL kit (GE-Healthcare, Little Chalfont, UK), and the chemiluminescence signals were detected with ChemiDoc (Bio-Rad, Hercules, CA, USA).

For `C[C@H]1COC2=C1C(=O)C(=O)c1c2ccc2c1CCCC2(C)C` [Compound 4, cryptotanshinone], the “A375 cell migration rate / wound healing closure” value [1] was “slow down”, the P21 expression level [2] was “significantly increased” and the “effect on NHEM viability” value [3] was “did not affect”. For the same compound, the “reduction of NHEM viability” value [3] was 20%, the “cyclin A2 expression level” value [4] was “slightly reduced” and the P53 protein expression [5] was “significant increase”. For the same compound, the pERK1/2 expression level [6] was “remained high”.

For `Cc1cc2ccc3c(c2cc(O)c1=O)CCCC3(C)C` [Compound 7, salviolone], the “A375 cell migration rate / wound healing closure” value [1] was “did not significantly delay”, the P21 expression level [2] was “strongly increased” and the “effect on NHEM viability” value [3] was “did not affect”. For the same compound, the “reduction of NHEM viability” value [3] was 20%, the “cyclin A2 expression level” value [4] was “strongly reduced” and the P53 protein expression [5] was “significant increase”. For the same compound, the pERK1/2 expression level [6] was “remained high”.
